# Read-outs that look alike come from different tables or passages of the source.
# Columns and labels:
# [1] = Ionisation constants by potentiometric titration; format: physicochemical; conditions: read-out: pKa expérimental
# Experimental: Les constantes d'ionisation sont déterminées expérimentalement par titrage potentiométrique suivant les conditions opératoires décrites ci-dessous et évaluées par le logiciel de prédiction ACD/pK DB, Version 5.12.
# Conditions opératoires du titrage potentiométrique • Matériel utilisé : (Radiometer-Tacussel) : • titrateur TIM 900 • passeur d'échantillons SAC 90 • logiciel Tim Talk 9 • - Prise d'essai : 10^-4 mole • - Mise en solution : (solubilisation avec passeur d'échantillons) • 5 ml du mélange DMSO 70 / Ethanol 10 / Eau 20 (agitation 3 minutes avec barbotage d'azote) • 10 ml d'une solution de NaCl 0.225M dans eau 80 / DMSO 20 (agitation 3 minutes avec barbotage d'azote) • - Méthode de titrage : • Etalonnage de l'électrode entre pH4 et pH10 • Titrage direct par NaOH 1N ou après ajout d'HCl 1N • Détection d'inflexion avec ajout continu du titrant • vitesse d'addition mini : 1%/min • vitesse d'addition maxi : 1%/min • Flux d'azote à la surface de la solution pendant le titrage • - Calculs : • 2 fonctions polynomiales sont utilisées pour obtenir le pKa dans l'eau en milieu NaCl 0.15M : • pour les fonctions acides : pKaH2O = -0,0208(pKasolvant)^2 + 1,257pKasolvant - 1,6 • pour les fonctions basiques :pKaH2O = -0,0208(pKasolvant)^2 + 1,257pKasolvant - 0,75
# Escherichia coli [2] = assay: Minimal inhibitory concentration (CMI), Alamar Blue broth method; format: cell-based; conditions: ATCC8739, ATCC #8739, lowest concentration with growth inhibition ≥ 90%, 16 h contact at 37°C, read-out: CMI E.coli
# Text: (§1) La méthode de détermination de l'activité anti-microbienne des composés selon l'invention fait intervenir la mesure de la Concentration Minimale Inhibitrice (CMI) vis-à-vis de 2 bactéries gram- (E. coli et P. aeruginosa), d'une bactérie gram+ (S. aureus) et d'une levure (C. albicans). Cette méthode a été effectuée selon la méthode décrite dans les articles suivants: - Baker C.N., Banerjee S.N. and Tenover F.C. : Evaluation of Alamar colorimetric MIC Method for antimicrobial susceptibility testing of gram-negative bacteria. J. Clin. Microbiol. (1994), 32, 1261-1267; - Baker C.N. and Tenover F.C. : Evaluation of Alamar colorimetric broth microdilution susceptibility testing method for staphylococci and enterococci. J. Clin. Microbiol. (1996), 34, 2654-2659. Les souches bactériennes utilisées au départ sous forme de disques lyophilisés calibrés sont réhydratées en suivant les indications du fournisseur (Fisher Scientific S.A.)
# (§2) Les souches sont ensemencées dans du milieu Trypto-caseine-soja. La mise en contact du composé à tester solubilisé dans l'eau, avec les souches en phase de croissance s'effectue en milieu liquide. Après 16 heures de contact du composé avec les bactéries (37°C), de l'Alamar Blue est ajouté comme indicateur métabolique de la viabilité de cellules variées et de bactéries. La réduction de l'indication est proportionnelle à l'activité métabolique des bactéries. A l'issue de l'incubation d'une durée de 2h (sauf pour C. albicans pour laquelle l'incubation est de 4h), l'activité métabolique des bactéries est évaluée par une lecture en absorbance ou en fluorescence. En fluorescence, les lectures sont réalisées à 544nm (Excitation) et à 590nm (Emission). Les composés les plus actifs sont sélectionnés et un effet dose (8 concentrations) est ensuite réalisé comme précédemment. La Concentration Minimale Inhibitrice (C.M.I.) a alors été déterminée comme étant la concentration la plus faible du composé testé pour laquelle était observée une inhibition de croissance de la bactérie ou de la levure ≥ 90%.
# Pseudomonas aeruginosa [3] = assay: as above; format: cell-based; conditions: ATCC9027, ATCC #9027, lowest concentration with growth inhibition ≥ 90%, 16 h contact at 37°C, read-out: CMI P.aeruginosa
# Text: as §1, §2
# Candida albicans [4] = assay: as above; format: cell-based; conditions: ATCC10231, ATCC #10231, lowest concentration with growth inhibition ≥ 90%, 16 h contact at 37°C
# Text: as §1, §2
# Staphylococcus aureus = assay: as above; format: cell-based; conditions: ATCC6538, ATCC #6538, lowest concentration with growth inhibition ≥ 90%, 16 h contact at 37°C, read-out: CMI S.aureus
# Text: as §1, §2
# Enterococcus faecalis = assay: Challenge test (artificial contamination) in cosmetic supports; format: cell-based; conditions: inoculum about 10^6 germes/gramme, sensitivity threshold 200 UFC
# Text: (§3) La mesure de la Concentration Minimale Inhibitrice (C.M.I.) développée ci-dessus ne peut être utilisée avec fiabilité pour les moisissures; or les moisissures peuvent également poser de graves problèmes dans la conservation des produits cosmétiques. En sachant que l'activité d'un composé diminue lorsqu'il est introduit dans une formule et que la méthode de la CMI se fait après dilution du composé dans l'eau, l'efficacité anti-microbienne des composés de formule (I) a été évaluée par la méthode du Challenge Test ou contamination artificielle après avoir introduit lesdits composés dans des supports cosmétiques (lotion, émulsions huile-dans-eau et eau-dans-huile). La méthode du challenge-test consiste en une contamination artificielle de l'échantillon par des souches microbiennes de collection (bactéries, levures et moisissures) et en une évaluation du nombre de micro-organismes revivifiables sept jours après l'inoculation. Afin de mettre en évidence l'effet d'un composé de formule (I), l'activité anti-microbienne d'une formule cosmétique contenant 0.25% de 4 methyl-pipéridine-1-yl-pyrimidine-2-ylamine a été comparée avec la même formule seule, après inoculation d'environ 10^6 germes/gramme de produit cosmétique.
# Escherichia coli [5] = assay: as above; format: cell-based; conditions: inoculum about 10^6 germes/gramme, sensitivity threshold 200 UFC
# Text: as §3
# Pseudomonas aeruginosa [6] = assay: as above; format: cell-based; conditions: inoculum about 10^6 germes/gramme, sensitivity threshold 200 UFC
# Text: as §3
# Candida albicans [7] = assay: as above; format: cell-based; conditions: inoculum about 10^6 germes/gramme, sensitivity threshold 200 UFC
# Text: as §3
# Aspergillus niger = assay: as above; format: cell-based; conditions: inoculum about 10^6 germes/gramme, sensitivity threshold 200 UFC
# Text: as §3
# [8] = water, nacl 0.15m, dans l'eau, NaCl 0,15M, reference molecules entered in the database used for the prediction
# [9] = function NH^+/N (pyrimidine motif), pKa in water, NaCl 0.15M, obtained from the solvent pKa by a polynomial function
# [10] = Emulsion démaquillante huile dans eau + 0.25% compound
# [11] = Emulsion eau dans huile + 0.250% compound
Structure (SMILES),MIC (Escherichia coli [2]),MIC (Pseudomonas aeruginosa [3]),MIC (Candida albicans [4]),MIC (Staphylococcus aureus),further results
"Nc1ncccn1 [2-aminopyrimidine, reference compound]",,,,,"pKa [1, 8]: 3.9"
"Nc1ccncn1 [4-aminopyrimidine, reference compound]",,,,,"pKa [1, 8]: 6"
"Cc1cc(NCc2ccco2)nc(N)n1 [Comparatif (DE 3717480), reference compound]",> 10000 µg/mL,> 10000 µg/mL,> 10000 µg/mL,626 µg/mL,
"Nc1nc(N2CCCCC2)cc(C(F)(F)F)n1 [Comparatif (DE 19917784), reference compound]",> 5000 µg/mL,> 5000 µg/mL,> 5000 µg/mL,> 5000 µg/mL,
"CO[Si](C)(C)CCCCNc1cc(C)nc(N)n1 [Composé A, 4-N-[4-(méthoxy-dimethylsilyl)-butyl]-6-methyl-pyrimidine - 2,4-diamine]",78 µg/mL,156 µg/mL,156 µg/mL,78 µg/mL,
"Cc1cc(NCC2CCNCC2)nc(N)n1 [Composé B, 4-N-[4-piperidinylmethyl]-6-methyl-pyrimidine-2,4-diamine]",1250 µg/mL,250 µg/mL,5000 µg/mL,2500 µg/mL,
Cc1cc(NC[C@@H]2CCCN2)nc(N)n1 [Composé C],5000 µg/mL,5000 µg/mL,2500 µg/mL,2500 µg/mL,
"Cc1cc(N2CCCN(CCCN3CCCC3)CC2)nc(N)n1 [Composé D, 4-methyl-6-[4-(3-pyrrolidin-1-yl-propyl)-[1,4]diazepan-1-yl]-pyrimidin-2-ylamine]",5000 µg/mL,> 5000 µg/mL,,5000 µg/mL,
"Cc1cc(N2CCc3cc(O)c(O)cc3C2)nc(N)n1 [Composé E, 2-(2-amino-6-methyl-pyrimidin-4-yl)-1,2,3,4-tetrahydro-isoquinoline-6,7-diol]",625 µg/mL,5000 µg/mL,1250 µg/mL,1250 µg/mL,
"Cc1cc(N2CCN(CCN(C)C)CC2)nc(N)n1 [Composé F, 4-[4-(2-dimethylamino-ethyl)-piperazin-1-yl]-6-methyl-pyrimidin-2-ylamine]",2500 µg/mL,> 5000 µg/mL,5000 µg/mL,5000 µg/mL,
"Cc1cc(NCC(C)(C)N)nc(N)n1 [Composé G, N4-(2-amino-2-methyl-propyl)-6-methyl-pyrimidine-2,4-diamine]",2500 µg/mL,2500 µg/mL,2500 µg/mL,5000 µg/mL,
"Cc1cc(NCCN2CCNCC2)nc(N)n1 [Composé H, 4-N-(2-piperazin-1-yl-ethyl)-6-methyl-pyrimidine – 2,4-diamine]",2500 µg/mL,5000 µg/mL,2500 µg/mL,1250 µg/mL,
"Cc1cc(NCc2ccc(C)o2)nc(N)n1 [Composé I, 4-N-(5-methyl-furan-2-ylmethyl)---6-methyl-pyrimidine – 2,4-diamine]",1250 µg/mL,2500 µg/mL,625 µg/mL,625 µg/mL,
"Cc1cc(N2CCN(C3CCN(C)CC3)CC2)nc(N)n1 [Composé J, 4-methyl-6-[4-(1-methyl-piperidin-4-yl)-piperazin-1-yl]-pyrimidin-2-ylamine]",2500 µg/mL,> 5000 µg/mL,5000 µg/mL,5000 µg/mL,
"Cc1cc(N2CCN(c3ncccn3)CC2)nc(N)n1 [Composé K, 4-methyl-6-(4-pyrimidin-2-yl-piperazin-1-yl)-pyrimidin-2-ylamine]",2500 µg/mL,> 5000 µg/mL,625 µg/mL,5000 µg/mL,
"Cc1cc(NCC2CCCC(CN)C2)nc(N)n1 (stereo not drawn) [Composé L, 4-N-(3-aminomethyl-cyclohexylmethyl)-6-methyl-pyrimidine-2,4-diamine]",2500 µg/mL,2500 µg/mL,1250 µg/mL,2500 µg/mL,
"Cc1cc(N2CCCCC2)nc(N)n1 [Composé M, 4-methyl-6-pipéridine-1-yl-pyrimidine-2-ylamine]",5000 µg/mL,5000 µg/mL,625 µg/mL,5000 µg/mL,"pKa [1, 9]: 8.35; Nombre d'UFC / gramme de produit après 7 jours de contact germes / produit (Enterococcus faecalis; [10]): <200 UFC / gramme de produit; Nombre d'UFC / gramme de produit après 7 jours de contact germes / produit (Enterococcus faecalis; Lotion + 0.25% compound): 400 UFC / gramme de produit; Nombre d'UFC / gramme de produit après 7 jours de contact germes / produit (Escherichia coli [5]; [10]): <200^2 UFC / gramme de produit; Nombre d'UFC / gramme de produit après 7 jours de contact germes / produit (Escherichia coli [5]; [11]): <200^2 UFC / gramme de produit; Nombre d'UFC / gramme de produit après 7 jours de contact germes / produit (Escherichia coli [5]; Lotion + 0.25% compound): <200^2 UFC / gramme de produit; Nombre d'UFC / gramme de produit après 7 jours de contact germes / produit (Pseudomonas aeruginosa [6]; [10]): <200 UFC / gramme de produit; Nombre d'UFC / gramme de produit après 7 jours de contact germes / produit (Pseudomonas aeruginosa [6]; [11]): <200 UFC / gramme de produit; Nombre d'UFC / gramme de produit après 7 jours de contact germes / produit (Pseudomonas aeruginosa [6]; Lotion + 0.25% compound): <200 UFC / gramme de produit; Nombre d'UFC / gramme de produit après 7 jours de contact germes / produit (Candida albicans [7]; [10]): <200 UFC / gramme de produit; Nombre d'UFC / gramme de produit après 7 jours de contact germes / produit (Candida albicans [7]; [11]): <200 UFC / gramme de produit; Nombre d'UFC / gramme de produit après 7 jours de contact germes / produit (Candida albicans [7]; Lotion + 0.25% compound): <200 UFC / gramme de produit; Nombre d'UFC / gramme de produit après 7 jours de contact germes / produit (Aspergillus niger; [11]): 400 UFC / gramme de produit; Nombre d'UFC / gramme de produit après 7 jours de contact germes / produit (Aspergillus niger; Lotion + 0.25% compound): 400 UFC / gramme de produit"
"CCCCCCNc1cc(C)nc(N)n1 [Composé N, 4-N-Hexyl-6-methyl-pyrimidine-2,4-diamine]",310 µg/mL,2500 µg/mL,160 µg/mL,630 µg/mL,"pKa [1, 9]: 8.35"
COc1cccc(Nc2cc(C)nc(N)n2)c1 [reference compound],> 5000 µg/mL,> 5000 µg/mL,1250 µg/mL,> 5000 µg/mL,
